Laboratory results published in patent US10336702B2, “Pharmaceutically active compounds” (BERGENBIO ASA, priority 2015, dated 2019).

How the values were obtained:
p-Akt3 in WM115 cells = target: T1, p-Akt3 in WM115 cells (Homo sapiens, UniProt Q9Y243); assay: Phospho-Akt cellular SureFire assay, p-Akt3 in WM115 cells; type: cell-based; details: insulin stimulated, read-out: Biological Assay 2 IC50 (nM) Akt3 WM115
T1 construct: SureFire assays to detect cellular p-Akt1, p-Akt2 and p-Akt3 levels in WM115 cells (Akt2/3) and LNCaP cells (Akt1); endogenous in cells; host or cells: WM115 (ECACC 91061232), insulin-stimulated
T1 sequence (Q9Y243 whole entry): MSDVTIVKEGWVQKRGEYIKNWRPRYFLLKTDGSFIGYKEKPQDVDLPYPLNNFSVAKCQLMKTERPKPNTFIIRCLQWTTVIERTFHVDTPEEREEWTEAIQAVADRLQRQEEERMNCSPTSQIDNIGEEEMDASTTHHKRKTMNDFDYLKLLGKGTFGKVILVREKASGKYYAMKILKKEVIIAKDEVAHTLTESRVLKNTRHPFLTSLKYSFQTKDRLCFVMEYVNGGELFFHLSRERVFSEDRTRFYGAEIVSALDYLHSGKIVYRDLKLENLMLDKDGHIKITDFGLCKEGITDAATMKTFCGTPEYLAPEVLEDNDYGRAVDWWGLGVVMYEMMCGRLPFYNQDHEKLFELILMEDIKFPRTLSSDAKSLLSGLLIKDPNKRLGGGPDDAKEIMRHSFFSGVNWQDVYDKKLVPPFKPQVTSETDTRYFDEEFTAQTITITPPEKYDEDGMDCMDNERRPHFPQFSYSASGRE
Outline: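 WM115 cells were serum-reduced to 0.1% FBS, stimulated with 100 nM insulin for 10 min, then exposed to compound (0.3% DMSO) for 15 min at 37 °C. Lysates were assayed for Thr308-phosphorylated Akt3 by AlphaScreen SureFire using an isoform-specific total Akt3 capture antibody. IC50 was derived from a 4-parameter fit.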

Akt2 = target: T2, Akt2 (Homo sapiens, UniProt P31751); assay: Akt activation assay (PDK1-mediated activation, LANCE Ultra crosstide TR-FRET), Akt2; type: biochemical; details: read-out: Biological Assay 1 IC50 (nM) Akt2
T2 construct: unspecified tag, removed (detagged) (cleaved yes); purchased SignalChem and Proteros (Akt2); Merck Millipore (PDK1) 14-452 (PDK1); none given for Akt2
T2 sequence (P31751 whole entry): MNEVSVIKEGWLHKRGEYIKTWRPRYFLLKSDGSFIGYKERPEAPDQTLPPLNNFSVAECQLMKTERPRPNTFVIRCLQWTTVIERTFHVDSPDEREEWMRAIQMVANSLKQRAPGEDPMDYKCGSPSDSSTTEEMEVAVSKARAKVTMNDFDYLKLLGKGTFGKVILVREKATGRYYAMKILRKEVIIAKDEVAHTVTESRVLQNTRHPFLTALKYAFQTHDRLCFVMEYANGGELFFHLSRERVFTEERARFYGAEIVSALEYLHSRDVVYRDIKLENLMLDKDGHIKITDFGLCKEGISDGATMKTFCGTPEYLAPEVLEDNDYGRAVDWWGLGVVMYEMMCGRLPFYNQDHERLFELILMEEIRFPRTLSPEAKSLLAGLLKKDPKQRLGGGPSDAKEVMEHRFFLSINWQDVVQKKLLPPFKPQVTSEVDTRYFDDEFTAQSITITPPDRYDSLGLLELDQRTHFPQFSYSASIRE
Outline: (§1)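 Unactivated Akt (5 nM Akt1, 15 or 5 nM Akt2, 3 or 5 nM Akt3, by supplier) preincubated with compound, then activated by 5 nM PDK1 on DOPS/DOPC/PtdIns(3,4,5)P3 vesicles with 100 μM ATP and 100 nM Ulight-crosstide, pH 7.5, 30 min. Eu-anti-phospho-crosstide TR-FRET (665/615 nm); IC50 by 4-parameter fit.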

Akt1 = target: T3, Akt1 (Homo sapiens, UniProt P31749); assay: Akt activation assay (PDK1-mediated activation, LANCE Ultra crosstide TR-FRET), Akt1; type: biochemical; details: read-out: Biological Assay 1 IC50 (nM) Akt1
T3 construct: unspecified tag, removed (detagged) (cleaved yes); purchased SignalChem and Proteros (Akt1); Merck Millipore (PDK1) 14-452 (PDK1); none given for Akt1
T3 sequence (P31749 whole entry): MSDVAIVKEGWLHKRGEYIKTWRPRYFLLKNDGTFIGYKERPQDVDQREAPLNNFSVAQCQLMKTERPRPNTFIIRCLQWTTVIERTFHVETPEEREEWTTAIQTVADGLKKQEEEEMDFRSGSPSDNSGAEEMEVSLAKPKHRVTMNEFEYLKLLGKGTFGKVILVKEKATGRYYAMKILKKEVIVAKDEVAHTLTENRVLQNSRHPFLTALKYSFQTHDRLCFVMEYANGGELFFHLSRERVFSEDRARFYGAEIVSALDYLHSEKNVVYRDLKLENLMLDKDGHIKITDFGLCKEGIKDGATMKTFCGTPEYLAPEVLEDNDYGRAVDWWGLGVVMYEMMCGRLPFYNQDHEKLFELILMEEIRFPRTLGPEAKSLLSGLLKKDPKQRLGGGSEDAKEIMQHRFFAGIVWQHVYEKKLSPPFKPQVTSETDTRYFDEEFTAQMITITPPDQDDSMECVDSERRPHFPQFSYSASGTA
Outline: as §1

p-Akt2 in WM115 cells = target: T4, p-Akt2 in WM115 cells (Homo sapiens, UniProt P31751); assay: Phospho-Akt cellular SureFire assay, p-Akt2 in WM115 cells; type: cell-based; details: insulin stimulated, read-out: Biological Assay 2 IC50 (nM) Akt2 WM115
T4 construct: SureFire assays to detect cellular p-Akt1, p-Akt2 and p-Akt3 levels in WM115 cells (Akt2/3) and LNCaP cells (Akt1); endogenous in cells; host or cells: WM115 (ECACC 91061232), insulin-stimulated
T4 sequence (P31751 whole entry): as the sequence (P31751 whole entry) above
Outline: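 WM115 cells in 0.1% FBS medium stimulated 10 min with 100 nM insulin, then exposed to compound for 15 min at 37° C (0.3% DMSO final). Lysates assayed by AlphaScreen with anti-(pThr308)Akt and isoform-specific total Akt2 antibodies; IC50 from 4-parameter fit.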

Akt3 = target: T5, Akt3 (Homo sapiens, UniProt Q9Y243); assay: Akt activation assay (PDK1-mediated activation, LANCE Ultra crosstide TR-FRET), Akt3; type: biochemical; details: read-out: Biological Assay 1 IC50 (nM) Akt3
T5 construct: unspecified tag, removed (detagged) (cleaved yes); purchased SignalChem and Proteros (Akt3); Merck Millipore (PDK1) 14-452 (PDK1); none given for Akt3
T5 sequence (Q9Y243 whole entry): as the sequence (Q9Y243 whole entry) above
Outline: as §1

p-Akt1 in LNCaP cells = target: T6, p-Akt1 in LNCaP cells (Homo sapiens, UniProt P31749); assay: Phospho-Akt cellular SureFire assay, p-Akt1 in LNCaP cells; type: cell-based; details: read-out: Biological Assay 2 IC50 (nM) Akt1 LNCaP
T6 construct: SureFire assays to detect cellular p-Akt1, p-Akt2 and p-Akt3 levels in WM115 cells (Akt2/3) and LNCaP cells (Akt1); endogenous in cells; host or cells: LNCaP (ECACC 89110211)
T6 sequence (P31749 whole entry): as the sequence (P31749 whole entry) above
Outline: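 LNCaP cells, 5×10^4/well, seeded overnight, switched to 0.1% FBS medium without insulin stimulation, then compound for 15 min at 37 °C (0.3% DMSO). Lysate p-Akt1 (pThr308) by AlphaScreen SureFire, two 2 h incubations at room temperature; IC50 by 4-parameter fit.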

| Structure (SMILES) | IC50 (p-Akt3 in WM115 cells) | IC50 (Akt2) | IC50 (Akt1) | IC50 (p-Akt2 in WM115 cells) | IC50 (Akt3) | IC50 (p-Akt1 in LNCaP cells) |
| --- | --- | --- | --- | --- | --- | --- |
| COC(=O)N(C(C)C)[C@H]1CC[C@H](CC(=O)Nc2cc(-c3ccccc3)c(-c3ccc([C@]4(N)C[C@](C)(O)C4)cc3)nn2)CC1 [Example 101, Methyl (trans-4-(2-((6-(4-(trans-1-amino-3-hydroxy-3-methylcyclobutyl)phenyl)-5-phenylpyridazin-3-yl)amino)-2-oxoethyl)cyclohexyl)(isopropyl)carbamate] | 48 nM | 120 nM | 8900 nM | 2600 nM | 7 nM | 5900 nM |
| CC(=O)N(C(C)C)[C@H]1CC[C@H](CC(=O)Nc2cc(-c3ccccc3)c(-c3ccc([C@]4(N)C[C@](C)(O)C4)cc3)cn2)CC1 [Example 102, N-(5-(4-(trans-1-amino-3-hydroxy-3-methylcyclobutyl)phenyl)-4-phenylpyridin-2-yl)-2-(trans-4-(N-isopropylacetamido)cyclohexyl)acetamide] | 57 nM | 140 nM | 4100 nM | 1700 nM | 16 nM | 1800 nM |
| CCC(=O)N(C(C)C)[C@H]1CC[C@H](CC(=O)Nc2cc(-c3ccccc3)c(-c3ccc([C@]4(N)C[C@](C)(O)C4)cc3)nn2)CC1 [Example 104, N-(trans-4-(2-((6-(4-(trans-1-amino-3-hydroxy-3-methylcyclobutyl)phenyl)-5-phenylpyridazin-3-yl)amino)-2-oxoethyl)cyclohexyl)-N-isopropylpropionamide] | 27 nM | 120 nM | 3200 nM | 1300 nM | 10 nM | 1900 nM |
| CC(C)N(C(=O)C1CC1)[C@H]1CC[C@H](CC(=O)Nc2cc(-c3ccccc3)c(-c3ccc([C@]4(N)C[C@](C)(O)C4)cc3)nn2)CC1 [Example 105, N-(trans-4-(2-((6-(4-(trans-1-amino-3-hydroxy-3-methylcyclobutyl)phenyl)-5-phenylpyridazin-3-yl)amino)-2-oxoethyl)cyclohexyl)-N-isopropylcyclopropanecarboxamide] | 26 nM | 210 nM | 4600 nM | 1400 nM | 8 nM | 5300 nM |
| CCN(C(C)=O)[C@H]1CC[C@H](CC(=O)Nc2cc(-c3ccccc3)c(-c3ccc([C@]4(N)C[C@](C)(O)C4)cc3)nn2)CC1 [Example 106, N-(6-(4-(trans-1-amino-3-hydroxy-3-methylcyclobutyl)phenyl)-5-phenylpyridazin-3-yl)-2-(trans-4-(N-ethylacetamido)cyclohexyl)acetamide] | 25 nM | 210 nM | > 13000 nM | 1500 nM | 8 nM | 4000 nM |
| COCC(=O)N(C)[C@H]1CC[C@H](CC(=O)Nc2cc(-c3ccccc3)c(-c3ccc([C@]4(N)C[C@](C)(O)C4)cc3)cn2)CC1 [Example 107, N-(trans-4-(2-((5-(4-(trans-1-amino-3-hydroxy-3-methylcyclobutyl)phenyl)-4-phenylpyridin-2-yl)amino)-2-oxoethyl)cyclohexyl)-2-methoxy-N-methylacetamide] | 9 nM | 94 nM | > 30000 nM | 390 nM | 9 nM | 7300 nM |
| CCC(=O)N(CC)[C@H]1CC[C@H](CC(=O)Nc2cc(-c3ccccc3)c(-c3ccc([C@]4(N)C[C@](C)(O)C4)cc3)nn2)CC1 [Example 113, N-(trans-4-(2-((6-(4-(trans-1-amino-3-hydroxy-3-methylcyclobutyl)phen)-5-phenylpyridazin-3-yl)amino)-2-oxoethyl)cyclohexyl)-N-ethylpropionamide] | 7 nM | 130 nM | > 14000 nM | 510 nM | 8 nM | 4100 nM |
| CCN(C(=O)C1CC1)[C@H]1CC[C@H](CC(=O)Nc2cc(-c3ccccc3)c(-c3ccc([C@]4(N)C[C@](C)(O)C4)cc3)nn2)CC1 [Example 114, N-(trans-4-(2-((6-(4-(trans-1-amino-3-hydroxy-3-methylcyclobutyl)phenyl)-5-phenylpyridazin-3-yl)amino)-2-oxoethyl)cyclohexyl)-N-ethylcyclopropanecarboxamide] | 5 nM | 110 nM | > 23000 nM | 440 nM | 7 nM | 3300 nM |
| CC(=O)N(CC(F)(F)F)[C@H]1CC[C@H](CC(=O)Nc2cc(-c3ccccc3)c(-c3ccc([C@]4(N)C[C@](C)(O)C4)cc3)cn2)CC1 [Example 117, N-(5-(4-(trans-1-amino-3-hydroxy-3-methylcyclobutyl)phenyl)-4-phenylpyridin-2-yl)-2-(trans-4-(N-(2,2,2-trifluoroethyl)acetamido)cyclohexyl)acetamide] | 33 nM | 290 nM | > 24000 nM | 980 nM | 42 nM | 12000 nM |
| CCN(C(=O)OC)[C@H]1CC[C@H](CC(=O)Nc2cnc(-c3ccc([C@]4(N)C[C@](C)(O)C4)cc3)c(-c3ccccc3)c2)CC1 [Example 118, Methyl (trans-4-(2-((6-(4-(trans-1-amino-3-hydroxy-3-methylcyclobutyl)phenyl)-5-phenylpyridin-3-yl)amino)-2-oxoethyl)cyclohexyl) (ethyl)carbamate] | 6 nM | 110 nM | 8500 nM | 230 nM | 5 nM | 1600 nM |
| CC(=O)N(C(C)C)[C@H]1CC[C@H](CC(=O)Nc2cnc(-c3ccc([C@]4(N)C[C@](C)(O)C4)cc3)c(-c3ccccc3)c2)CC1 [Example 120, N-(6-(4-(trans-1-amino-3-hydroxy-3-methylcyclobutyl)phenyl)-5-phenylpyridin-3-yl)-2-(trans-4-(N-isopropylacetamido)cyclohexyl)acetamide] | 15 nM | 65 nM | 8600 nM | 350 nM | 7 nM | 1300 nM |
| CCC(=O)N(C(C)C)[C@H]1CC[C@H](CC(=O)Nc2cnc(-c3ccc([C@]4(N)C[C@](C)(O)C4)cc3)c(-c3ccccc3)c2)CC1 [Example 122, N-(trans-4-(2-((6-(4-(trans-1-amino-3-hydroxy-3-methylcyclobutyl)phenyl)-5-phenylpyridin-3-yl)amino)-2-oxoethyl)cyclohexyl)-N-isopropylpropionamide] | 13 nM | 87 nM | 6100 nM | 390 nM | 8 nM | 1400 nM |
| CC(=O)N(C)[C@H]1CC[C@H](CC(=O)Nc2cnc(-c3ccc(C4(N)CC(C)(O)C4)c(F)c3)c(-c3ccccc3)c2)CC1 (stereo partly drawn) [Example 124, N-(6-(4-(trans-1-amino-3-hydroxy-3-methylcyclobutyl)-3-fluorophenyl)-5-phenylpyridin-3-yl)-2-(trans-4-(N-methylacetamido)cyclohexyl)acetamide] | 27 nM | 880 nM | > 21000 nM | 2400 nM | 36 nM | 10000 nM |
| CCC(=O)N(C)[C@H]1CC[C@H](CC(=O)Nc2cc(-c3ccsc3)c(-c3ccc([C@]4(N)C[C@H](F)C4)cc3)nn2)CC1 [Example 125] | 22 nM | 1500 nM | > 30000 nM | 3000 nM | 26 nM | > 30000 nM |
| CCC(=O)N(C)[C@H]1CC[C@H](CC(=O)Nc2cc(-c3ccccc3)c(-c3ccc([C@]4(N)C[C@](C)(O)C4)c(F)c3)nn2)CC1 [Example 126, N-(trans-4-(2-((6-(4-(trans-1-amino-3-hydroxy-3-methylcyclobutyl)-3-fluorophenyl)-5-phenylpyridazin-3-yl)amino)-2-oxoethyl)cyclohexyl)-N-methylpropionamide] | 32 nM | 3000 nM | > 30000 nM | 3300 nM | 31 nM | > 30000 nM |
